From article PMC10987960

What was measured:
PEDV 3CL^pro [1] = target: T1, PEDV 3CL^pro (Porcine epidemic diarrhea virus CV777, UniProt P0C6Y4); test: FRET protease assay, Dabcyl/Edans peptide; type: biochemical; settings: read-out: Inhibitory rate
T1 construct: gene rep; mature nsp5 cut from replicase polyproteins pp1a/pp1ab; N- and C-terminal His tags (kept, no cleavage told), pET-28a(+), E. coli BL21(DE3), nickel column; docking used PDB 4XFQ
T1 sequence (P0C6Y4 2998-3299 limits assumed): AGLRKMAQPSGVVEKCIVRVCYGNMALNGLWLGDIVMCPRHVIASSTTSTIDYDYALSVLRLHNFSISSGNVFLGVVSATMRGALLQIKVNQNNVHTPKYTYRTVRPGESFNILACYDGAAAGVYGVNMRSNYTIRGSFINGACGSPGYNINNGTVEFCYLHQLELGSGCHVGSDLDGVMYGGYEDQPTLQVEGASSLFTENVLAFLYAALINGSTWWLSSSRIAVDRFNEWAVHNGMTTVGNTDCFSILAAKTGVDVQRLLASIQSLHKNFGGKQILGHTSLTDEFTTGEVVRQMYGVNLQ
Excerpt: FRET protease assay, Dabcyl/Edans peptide on PEDV 3CL^pro

PEDV 3CL^pro [2] = target: T1, PEDV 3CL^pro; test: FRET protease assay, Dabcyl/Edans peptide; type: biochemical

Compound | inhibition at 20 µM (PEDV 3CL^pro [1]) | IC50 (PEDV 3CL^pro [2])
O=c1c(-c2ccc(O)cc2)coc2cc(O)ccc12 [compound 4, Daidzein] | 91.26 ± 0.85% | –
O=c1c(O)c(-c2cc(O)c(O)c(O)c2)oc2cc(O)cc(O)c12 [compound 6, Myricetin] | 75.3 ± 2.33% | –
O=c1c(O)c(-c2ccc(O)c(O)c2)oc2cc(O)ccc12 [compound 2, Fisetin] | 96.8 ± 2.64% | –
O=c1c(O)c(-c2ccc(O)c(O)c2)oc2cc(O)c(O)c(O)c12 [compound 3, Quercetagetin] | 91.8 ± 2.74% | –
O=C(O)[C@H]1O[C@@H](Oc2cc3oc(-c4ccccc4)cc(=O)c3c(O)c2O)[C@H](O)[C@@H](O)[C@@H]1O [Baicalin] | – | 65.8 ± 6.57 µM
O=C(O[C@@H]1Cc2c(O)cc(O)cc2O[C@H]1c1cc(O)c(O)c(O)c1)c1cc(O)c(O)c(O)c1 [compound 1, (−)-Gallocatechin gallate] | 97.65 ± 0.35% | –
O=c1cc(-c2ccccc2)oc2cc(O)c(O)c(O)c12 [Baicalein] | – | 9.5 ± 1.02 µM
